Laboratory results from the supplement of paper PMC12076712.

Assays:
Test in all cases: pIC50, kinobeads binding competition
MAST1 = MAST1 (UniProt Q9Y2H9); details: cell material: Jurkat lysate
In short: (§1)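 Jurkat cells were exposed alive to nine compound concentrations (top 30 μM, 1:4 steps) or vehicle for 60 min at 37 °C and then lysed. In a second format, nine concentrations (top 30 μM, 1:5 steps) were incubated for 60 min at 4 °C with Jurkat lysate or with a 1:1:1:1 lysate mix of HEK293, K-562, HepG2 and placenta. Proteins captured on Kinobeads were digested and quantified by TMT10 LC-MS/MS. pIC50 values were derived from logistic dose-response fits (R drc package) of fold changes relative to vehicle, in biological duplicates.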

AKT1 = AKT1 (UniProt P31749)
In short: as §1

ILK = biological target: T1, ILK (UniProt Q13418)
T1 sequence (whole entry): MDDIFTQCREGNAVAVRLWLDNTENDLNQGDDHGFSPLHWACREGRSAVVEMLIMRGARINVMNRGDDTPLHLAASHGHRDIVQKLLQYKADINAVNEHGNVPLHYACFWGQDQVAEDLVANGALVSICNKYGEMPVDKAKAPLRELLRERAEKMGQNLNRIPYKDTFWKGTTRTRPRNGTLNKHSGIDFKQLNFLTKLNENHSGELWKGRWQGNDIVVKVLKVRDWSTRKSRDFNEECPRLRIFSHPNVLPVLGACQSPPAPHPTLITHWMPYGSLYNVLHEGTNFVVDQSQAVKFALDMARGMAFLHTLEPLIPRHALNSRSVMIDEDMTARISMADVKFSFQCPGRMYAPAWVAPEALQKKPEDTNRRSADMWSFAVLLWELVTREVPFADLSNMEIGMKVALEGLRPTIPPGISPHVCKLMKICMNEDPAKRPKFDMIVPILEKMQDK
In short: as §1

UniProt P80192 = biological target: UniProt P80192
In short: as §1

PBK = biological target: T2, PBK (UniProt Q96KB5); details: cell material: Jurkat cells
T2 sequence (whole entry): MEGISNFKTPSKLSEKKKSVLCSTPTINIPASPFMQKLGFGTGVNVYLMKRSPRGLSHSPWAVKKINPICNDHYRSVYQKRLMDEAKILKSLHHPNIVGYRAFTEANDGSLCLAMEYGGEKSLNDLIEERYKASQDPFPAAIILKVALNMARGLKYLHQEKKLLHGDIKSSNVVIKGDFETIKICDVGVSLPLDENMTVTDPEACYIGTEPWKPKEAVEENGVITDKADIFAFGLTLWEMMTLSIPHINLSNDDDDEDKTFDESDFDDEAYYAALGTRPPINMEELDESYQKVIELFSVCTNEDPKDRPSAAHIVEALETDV
In short: as §1

CAMK4 = biological target: T3, CAMK4 (UniProt Q16566)
T3 sequence (whole entry): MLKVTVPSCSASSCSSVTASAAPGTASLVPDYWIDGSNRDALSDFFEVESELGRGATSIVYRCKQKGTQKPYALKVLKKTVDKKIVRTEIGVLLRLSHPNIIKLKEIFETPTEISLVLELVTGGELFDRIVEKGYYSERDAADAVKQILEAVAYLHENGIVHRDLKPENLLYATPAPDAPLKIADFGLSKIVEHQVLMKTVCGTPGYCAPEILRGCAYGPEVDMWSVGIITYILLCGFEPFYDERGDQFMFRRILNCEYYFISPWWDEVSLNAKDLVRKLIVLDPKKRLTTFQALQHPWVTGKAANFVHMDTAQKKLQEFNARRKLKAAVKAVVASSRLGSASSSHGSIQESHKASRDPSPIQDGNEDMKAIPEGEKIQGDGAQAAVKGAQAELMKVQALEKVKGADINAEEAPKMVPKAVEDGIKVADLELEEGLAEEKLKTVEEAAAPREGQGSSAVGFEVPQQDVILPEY
In short: as §1

UniProt O00506 = biological target: UniProt O00506
In short: as §1

BLK = BLK (UniProt P51451)
In short: as §1

SNRK = biological target: T4, SNRK (UniProt Q9NRH2)
T4 sequence (whole entry): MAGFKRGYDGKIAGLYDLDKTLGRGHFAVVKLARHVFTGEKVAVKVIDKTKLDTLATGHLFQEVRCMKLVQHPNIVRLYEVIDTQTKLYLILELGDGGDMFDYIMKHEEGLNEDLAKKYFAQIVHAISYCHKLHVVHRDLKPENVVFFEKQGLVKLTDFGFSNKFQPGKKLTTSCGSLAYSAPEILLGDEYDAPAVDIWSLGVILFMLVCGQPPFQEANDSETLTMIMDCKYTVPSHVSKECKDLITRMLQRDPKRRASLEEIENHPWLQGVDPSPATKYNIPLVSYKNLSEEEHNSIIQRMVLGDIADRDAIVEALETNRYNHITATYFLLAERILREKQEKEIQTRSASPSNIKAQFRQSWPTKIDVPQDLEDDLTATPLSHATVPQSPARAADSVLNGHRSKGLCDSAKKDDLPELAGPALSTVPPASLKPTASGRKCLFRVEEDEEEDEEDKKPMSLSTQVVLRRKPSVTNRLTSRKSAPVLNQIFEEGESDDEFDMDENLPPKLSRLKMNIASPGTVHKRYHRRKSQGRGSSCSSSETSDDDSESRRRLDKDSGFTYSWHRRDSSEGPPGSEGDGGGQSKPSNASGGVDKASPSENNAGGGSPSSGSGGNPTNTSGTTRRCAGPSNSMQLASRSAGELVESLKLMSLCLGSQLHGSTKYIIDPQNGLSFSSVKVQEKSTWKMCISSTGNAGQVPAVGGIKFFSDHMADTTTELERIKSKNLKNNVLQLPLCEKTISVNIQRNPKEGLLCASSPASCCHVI
In short: as §1

PAK1 = PAK1 (UniProt Q13153); details: cell material: Jurkat cells
In short: as §1

PRKACB = PRKACB (UniProt P22694)
In short: as §1

FRK = FRK (UniProt P42685); details: cell material: Lysate mix
In short: as §1

CDC7 = CDC7 (UniProt O00311)
In short: as §1

Sequence of AKT1 (P31749 whole entry): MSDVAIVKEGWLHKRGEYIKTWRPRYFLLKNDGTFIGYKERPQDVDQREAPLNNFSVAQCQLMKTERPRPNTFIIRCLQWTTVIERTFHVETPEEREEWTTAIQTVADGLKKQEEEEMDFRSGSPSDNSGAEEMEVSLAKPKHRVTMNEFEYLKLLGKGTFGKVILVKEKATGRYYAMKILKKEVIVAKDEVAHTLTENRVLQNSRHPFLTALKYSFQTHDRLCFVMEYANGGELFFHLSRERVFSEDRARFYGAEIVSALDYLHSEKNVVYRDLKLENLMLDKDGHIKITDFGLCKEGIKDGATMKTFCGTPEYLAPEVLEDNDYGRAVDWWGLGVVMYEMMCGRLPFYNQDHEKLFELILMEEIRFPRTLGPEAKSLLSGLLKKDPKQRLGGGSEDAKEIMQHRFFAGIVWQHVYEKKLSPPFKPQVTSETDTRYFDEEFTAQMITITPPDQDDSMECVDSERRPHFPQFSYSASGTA
Sequence of FRK (P42685 whole entry): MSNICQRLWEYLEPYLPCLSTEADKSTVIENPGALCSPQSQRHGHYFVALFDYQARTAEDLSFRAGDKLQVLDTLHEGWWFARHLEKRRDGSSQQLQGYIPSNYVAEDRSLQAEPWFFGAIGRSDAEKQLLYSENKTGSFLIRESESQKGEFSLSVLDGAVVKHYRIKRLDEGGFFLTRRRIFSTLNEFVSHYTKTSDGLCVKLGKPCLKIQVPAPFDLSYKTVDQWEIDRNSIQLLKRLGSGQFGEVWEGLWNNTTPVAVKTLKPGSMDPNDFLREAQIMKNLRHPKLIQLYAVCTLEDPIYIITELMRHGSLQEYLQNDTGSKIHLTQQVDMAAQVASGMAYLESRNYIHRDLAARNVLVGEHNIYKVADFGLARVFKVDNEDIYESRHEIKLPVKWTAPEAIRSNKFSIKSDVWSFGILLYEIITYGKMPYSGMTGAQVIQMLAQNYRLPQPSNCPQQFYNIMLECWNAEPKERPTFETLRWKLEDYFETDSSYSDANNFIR
Sequence of BLK (P51451 whole entry, looked up): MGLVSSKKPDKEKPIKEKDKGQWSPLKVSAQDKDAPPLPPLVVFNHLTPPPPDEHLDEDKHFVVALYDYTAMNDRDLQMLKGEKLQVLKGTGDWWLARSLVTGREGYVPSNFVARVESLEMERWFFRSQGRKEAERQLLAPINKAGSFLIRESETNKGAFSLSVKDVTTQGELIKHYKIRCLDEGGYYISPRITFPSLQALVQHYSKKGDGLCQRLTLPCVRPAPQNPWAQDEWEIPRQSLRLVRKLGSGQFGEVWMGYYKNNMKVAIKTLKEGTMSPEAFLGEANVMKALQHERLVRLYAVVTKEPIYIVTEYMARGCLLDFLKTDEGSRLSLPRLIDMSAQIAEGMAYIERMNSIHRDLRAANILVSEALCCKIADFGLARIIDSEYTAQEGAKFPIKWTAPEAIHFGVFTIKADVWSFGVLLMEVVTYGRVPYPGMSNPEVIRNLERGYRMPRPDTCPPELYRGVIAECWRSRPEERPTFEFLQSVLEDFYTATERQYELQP
Sequence of UniProt P80192 (P80192 whole entry, looked up): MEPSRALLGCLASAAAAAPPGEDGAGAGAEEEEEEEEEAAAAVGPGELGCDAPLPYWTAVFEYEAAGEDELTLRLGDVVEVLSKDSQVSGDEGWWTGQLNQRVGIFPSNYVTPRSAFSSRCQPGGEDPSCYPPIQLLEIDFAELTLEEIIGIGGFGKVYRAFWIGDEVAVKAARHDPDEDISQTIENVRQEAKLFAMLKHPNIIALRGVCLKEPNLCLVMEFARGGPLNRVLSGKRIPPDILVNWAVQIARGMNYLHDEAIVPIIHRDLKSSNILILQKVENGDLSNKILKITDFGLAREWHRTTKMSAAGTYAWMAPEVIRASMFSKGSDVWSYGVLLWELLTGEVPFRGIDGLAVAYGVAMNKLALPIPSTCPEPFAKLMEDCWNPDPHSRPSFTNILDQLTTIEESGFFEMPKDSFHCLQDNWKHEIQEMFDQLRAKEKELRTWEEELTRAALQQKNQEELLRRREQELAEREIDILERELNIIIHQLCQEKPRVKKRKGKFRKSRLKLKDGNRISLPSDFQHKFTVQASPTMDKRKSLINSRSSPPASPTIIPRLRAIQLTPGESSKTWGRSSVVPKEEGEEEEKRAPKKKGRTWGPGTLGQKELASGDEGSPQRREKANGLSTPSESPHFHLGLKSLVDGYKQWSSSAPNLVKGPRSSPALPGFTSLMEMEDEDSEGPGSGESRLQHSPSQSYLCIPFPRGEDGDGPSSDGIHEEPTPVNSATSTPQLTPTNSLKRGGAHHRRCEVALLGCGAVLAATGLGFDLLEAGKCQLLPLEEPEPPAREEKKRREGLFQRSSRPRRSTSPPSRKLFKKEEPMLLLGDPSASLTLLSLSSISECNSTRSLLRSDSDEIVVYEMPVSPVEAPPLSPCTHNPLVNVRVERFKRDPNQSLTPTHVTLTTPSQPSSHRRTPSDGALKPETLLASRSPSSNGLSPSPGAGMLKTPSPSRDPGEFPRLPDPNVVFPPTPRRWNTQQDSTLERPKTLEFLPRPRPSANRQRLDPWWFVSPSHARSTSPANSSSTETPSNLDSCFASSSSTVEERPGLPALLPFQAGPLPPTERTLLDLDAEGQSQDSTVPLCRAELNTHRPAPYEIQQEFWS
Sequence of CDC7 (O00311 whole entry, looked up): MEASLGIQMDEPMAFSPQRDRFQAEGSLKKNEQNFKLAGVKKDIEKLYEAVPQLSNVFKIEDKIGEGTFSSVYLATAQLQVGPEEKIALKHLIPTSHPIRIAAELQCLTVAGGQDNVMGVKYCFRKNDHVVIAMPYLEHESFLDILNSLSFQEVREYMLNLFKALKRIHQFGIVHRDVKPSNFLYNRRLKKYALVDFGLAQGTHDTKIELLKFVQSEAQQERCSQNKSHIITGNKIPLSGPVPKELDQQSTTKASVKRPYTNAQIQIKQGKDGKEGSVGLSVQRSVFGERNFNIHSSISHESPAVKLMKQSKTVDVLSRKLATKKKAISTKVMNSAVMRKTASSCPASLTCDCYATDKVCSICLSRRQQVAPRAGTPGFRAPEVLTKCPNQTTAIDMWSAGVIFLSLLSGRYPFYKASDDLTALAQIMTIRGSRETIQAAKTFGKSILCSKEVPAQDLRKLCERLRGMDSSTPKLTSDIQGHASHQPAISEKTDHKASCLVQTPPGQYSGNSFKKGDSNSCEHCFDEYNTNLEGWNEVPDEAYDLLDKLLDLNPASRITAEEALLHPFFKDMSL
Sequence of MAST1 (Q9Y2H9 whole entry, looked up): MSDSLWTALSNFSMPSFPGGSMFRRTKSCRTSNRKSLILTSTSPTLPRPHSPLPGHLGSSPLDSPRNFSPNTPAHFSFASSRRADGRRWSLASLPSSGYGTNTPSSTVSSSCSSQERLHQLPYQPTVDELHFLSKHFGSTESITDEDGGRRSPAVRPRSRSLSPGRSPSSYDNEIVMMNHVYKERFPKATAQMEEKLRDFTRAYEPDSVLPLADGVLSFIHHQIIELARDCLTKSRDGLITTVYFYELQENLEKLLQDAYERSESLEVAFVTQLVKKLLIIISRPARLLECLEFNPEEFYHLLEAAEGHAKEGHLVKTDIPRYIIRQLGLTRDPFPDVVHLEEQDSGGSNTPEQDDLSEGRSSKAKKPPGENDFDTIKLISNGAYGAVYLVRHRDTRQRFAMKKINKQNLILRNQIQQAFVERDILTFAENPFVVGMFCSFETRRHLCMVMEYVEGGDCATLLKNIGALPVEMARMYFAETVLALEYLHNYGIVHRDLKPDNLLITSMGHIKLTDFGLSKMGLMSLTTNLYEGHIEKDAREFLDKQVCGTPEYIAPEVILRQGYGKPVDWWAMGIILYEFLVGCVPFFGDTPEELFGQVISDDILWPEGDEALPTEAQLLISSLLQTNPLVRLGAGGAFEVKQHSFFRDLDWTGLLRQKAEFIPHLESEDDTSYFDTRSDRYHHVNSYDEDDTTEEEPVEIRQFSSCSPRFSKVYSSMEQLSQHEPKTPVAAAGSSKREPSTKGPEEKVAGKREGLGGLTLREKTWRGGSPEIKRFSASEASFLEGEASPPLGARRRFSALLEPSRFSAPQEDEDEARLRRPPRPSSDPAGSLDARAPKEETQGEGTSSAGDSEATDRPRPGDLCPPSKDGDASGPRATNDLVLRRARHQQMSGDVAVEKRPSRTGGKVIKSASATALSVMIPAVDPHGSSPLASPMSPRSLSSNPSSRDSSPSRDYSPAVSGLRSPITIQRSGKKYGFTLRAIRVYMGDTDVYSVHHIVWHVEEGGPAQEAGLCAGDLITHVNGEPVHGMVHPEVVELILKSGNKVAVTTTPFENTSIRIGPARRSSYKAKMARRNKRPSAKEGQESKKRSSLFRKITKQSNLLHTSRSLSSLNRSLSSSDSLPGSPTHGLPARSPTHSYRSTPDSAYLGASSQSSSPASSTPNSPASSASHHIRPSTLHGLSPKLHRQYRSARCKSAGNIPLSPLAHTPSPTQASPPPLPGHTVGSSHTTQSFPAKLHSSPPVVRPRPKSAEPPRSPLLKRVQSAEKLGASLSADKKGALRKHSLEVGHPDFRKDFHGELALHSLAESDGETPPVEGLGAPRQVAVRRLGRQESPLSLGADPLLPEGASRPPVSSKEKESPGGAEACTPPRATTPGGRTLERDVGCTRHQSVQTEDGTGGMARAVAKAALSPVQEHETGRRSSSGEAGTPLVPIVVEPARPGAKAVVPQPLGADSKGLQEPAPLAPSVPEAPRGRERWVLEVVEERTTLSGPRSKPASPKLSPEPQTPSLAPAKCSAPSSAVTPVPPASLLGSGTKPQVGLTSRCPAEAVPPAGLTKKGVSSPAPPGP

Compound | pIC50 (ILK; cell material: Lysate mix) | pIC50 (UniProt P80192; cell material: Lysate mix) | pIC50 (FRK) | pIC50 (PRKACB; cell material: Lysate mix) | pIC50 (CDC7; cell material: Lysate mix) | pIC50 (MAST1) | pIC50 (AKT1; cell material: Jurkat cells) | pIC50 (ILK; cell material: Jurkat cells) | pIC50 (ILK; cell material: Jurkat lysate) | pIC50 (UniProt P80192; cell material: Jurkat cells) | pIC50 (UniProt P80192; cell material: Jurkat lysate) | pIC50 (PBK) | pIC50 (CAMK4; cell material: Jurkat cells) | pIC50 (BLK; cell material: Jurkat cells) | pIC50 (BLK; cell material: Jurkat lysate) | pIC50 (SNRK; cell material: Jurkat lysate) | pIC50 (PAK1) | pIC50 (PRKACB; cell material: Jurkat lysate) | further results
CCNC(=O)c1cc(Nc2cc(C3CC3)[nH]n2)nc(N2CCN(Cc3ccc(S(=O)(=O)F)cc3)CC2)n1 | < 4.52 | 5.78 | 5.98 | – | 4.57 | – | – | – | – | – | – | – | – | – | – | – | – | – | –
C#CCNC(=O)c1cc(Nc2cc(C3CC3)[nH]n2)nc(N2CCN(Cc3ccc(S(=O)(=O)F)cc3)CC2)n1 | – | 6.2 | 6.27 | – | – | 5.92 | 4.92 | 5.41 | < 4.52 | 6.42 | 5.9 | < 4.52 | 5.09 | 6.82 | 6.51 | < 4.52 | < 4.52 | < 4.52 | pIC50 (UniProt O00506; cell material: Jurkat lysate): 6.59; pIC50 (CDC7; cell material: Jurkat cells): 5.68; pIC50 (SNRK; cell material: Jurkat cells): 5.47
C#CCNC(=O)c1cc(Nc2cc(C)[nH]n2)nc(N2CCN(Cc3ccc(S(=O)(=O)F)cc3)CC2)n1 | < 4.52 | – | 5.78 | – | < 4.52 | – | – | – | – | – | – | – | – | – | – | – | – | – | –

Further lines, with some results ahead:

pIC50 (ILK; cell material: Lysate mix) | pIC50 (UniProt P80192; cell material: Lysate mix) | pIC50 (FRK) | pIC50 (PRKACB; cell material: Lysate mix) | pIC50 (CDC7; cell material: Lysate mix) | Compound | pIC50 (MAST1) | pIC50 (AKT1; cell material: Jurkat cells) | pIC50 (ILK; cell material: Jurkat cells) | pIC50 (ILK; cell material: Jurkat lysate) | pIC50 (UniProt P80192; cell material: Jurkat cells) | pIC50 (UniProt P80192; cell material: Jurkat lysate) | pIC50 (PBK) | pIC50 (CAMK4; cell material: Jurkat cells) | pIC50 (BLK; cell material: Jurkat cells) | pIC50 (BLK; cell material: Jurkat lysate) | pIC50 (SNRK; cell material: Jurkat lysate) | pIC50 (PAK1) | pIC50 (PRKACB; cell material: Jurkat lysate) | further results
< 4.52 | < 4.52 | – | – | – | O=C(NCCNC(=O)c1cc(Nc2cc(C3CC3)[nH]n2)nc(N2CCN(Cc3ccc(S(=O)(=O)F)cc3)CC2)n1)OC1CC/C=C/CCC1 (stereo not given) | 4.57 | < 4.52 | < 4.52 | < 4.52 | 6.19 | < 4.52 | < 4.52 | < 4.52 | 6.73 | 5.1 | < 4.52 | < 4.52 | < 4.52 | pIC50 (AKT1; cell material: Jurkat lysate): < 4.52; pIC50 (CAMK4; cell material: Jurkat lysate): < 4.52; pIC50 (UniProt O00506; cell material: Lysate mix): < 4.52; pIC50 (PRKACB; cell material: Jurkat cells): < 4.52
< 4.52 | < 4.52 | < 4.52 | < 4.52 | – | Cc1cc(Nc2cc(C(=O)NCCNC(=O)OC3CC/C=C/CCC3)nc(N3CCN(Cc4ccc(S(=O)(=O)F)cc4)CC3)n2)n[nH]1 (stereo not given) | – | – | – | – | – | – | – | – | – | – | – | – | – | –
– | – | 6.23 | < 4.52 | – | CCNC(=O)c1cc(Nc2cc(C)[nH]n2)nc(N2CCN(Cc3ccc(S(=O)(=O)F)cc3)CC2)n1 | – | – | – | – | – | – | – | – | – | – | – | – | – | –
